The source of these data is ChEMBL document CHEMBL1201862, “PubChem BioAssay data set” (2004).

Holding throughout (test): NCI-60 cell line screen, 48 h
Experiment [1] has as its system SK-MEL-5.
In experiment [2] the test system is HOP-62.
Experiment [3] concerns MDA-N.
Experiment [4] concerns LOX IMVI.
The subject of experiment [5] is CAKI-1.
For experiment [6], the system named is COLO 205.
Experiment [7] deals with U-251.
For experiment [8], the system named is RPMI-8226.
The test system of experiment [9] is A498.
Experiment [10] has as its system HT-29.
The test system of experiment [11] is 786-0.
Experiment [12] deals with HCT-116.
In experiment [13] the test system is M14.
For experiment [14], the system named is MDA-MB-435.
In experiment [15] the test system is Malme-3M.
The subject of experiment [16] is OVCAR-5.
In experiment [17] the test system is IGROV-1.
The test system of experiment [18] is KM12.
The test system of experiment [19] is HL-60.
Experiment [20] relates to SR.

Each structure is given as a SMILES string.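 Briefly, cells in 96-well plates were exposed to five compound concentrations for 48 h, and endpoints were estimated by linear interpolation. Here, GI50 denotes the concentration required for 50% inhibition of growth.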 Active and inactive are the calls of the source. Rule as the data show it: active = GI50 up to about 1.1 µM and inactive = higher.

Take `COc1ccc(Cc2c(N)[nH]c(=O)[nH]c2=O)cc1`: the GI50 in experiment [1], in [2], in [3], in experiment [4], in experiment [5] and in experiment [6] was > 100 µM (inactive) in each case. The GI50 in experiment [7] was > 100 µM (inactive); in experiment [8] it was 22 µM (inactive); in experiment [9] it was > 100 µM (inactive); in experiment [10], > 100 µM (inactive); in experiment [11], > 100 µM (inactive); in experiment [12], > 100 µM (inactive). Also, the GI50 in [13], in experiment [14], in experiment [15], in experiment [16], in experiment [17] and in [18] was > 100 µM (inactive) in each case.
With `COc1cccc(CSCC(=O)O)c1`, the GI50 in experiment [1], in [2], in experiment [3], in experiment [4], in experiment [5] and in [6] was > 100 µM (inactive) each time. For the same compound, the GI50 in [7], in experiment [8], in experiment [9], in experiment [10], in experiment [11] and in experiment [12] was > 100 µM (inactive) in each case. In addition, the GI50 in [13], in experiment [14], in [15], in [16], in experiment [17] and in experiment [18] was > 100 µM (inactive) in each case.
Turning to `COC(=O)/C=C\C(C#N)(C#N)/N=C/c1cccs1`, the GI50 was 0.813 µM (active) in [1]; 17.6 µM (inactive) in experiment [2]; 8.22 µM (inactive) in experiment [3]; 1.63 µM (inactive) in [19]; 2.34 µM (inactive) in experiment [4]; 1.88 µM (inactive) in experiment [5]. In addition, the GI50 in experiment [6] is 3.68 µM (inactive); in experiment [7], 16.6 µM (inactive); in [8] it was 2.11 µM (inactive); in experiment [9], 19.9 µM (inactive); in experiment [10] it was 2 µM (inactive); in experiment [11] it was 14.2 µM (inactive). The GI50 in experiment [12] is 8.69 µM (inactive); in [13], 4.35 µM (inactive); in [14], 5.16 µM (inactive); in experiment [15], 2.65 µM (inactive); in [16], 5.92 µM (inactive); in [17], 15.7 µM (inactive). Also, the GI50 in experiment [18] is 17.2 µM (inactive).
In the case of `COc1cc(CNc2nc3cc(C(F)(F)F)ccc3nc2C)cc(OC)c1OC`, the GI50 in experiment [1] was 19.7 µM (inactive); in experiment [2] it was 24.3 µM (inactive); in experiment [3], 15.8 µM (inactive); in experiment [19], 16.5 µM (inactive); in experiment [4] it was 13.9 µM (inactive); in experiment [20], 14.5 µM (inactive). Besides, the GI50 in [5] is 24.7 µM (inactive); in experiment [6] it was 12.8 µM (inactive); in experiment [7], 15.3 µM (inactive); in experiment [8], 11.7 µM (inactive); in experiment [10], 17.2 µM (inactive); in [11], > 10 µM (inactive). Besides, the GI50 in [12] is 19.3 µM (inactive); in experiment [13] it was 12.4 µM (inactive); in experiment [14] it was 19.5 µM (inactive); in experiment [15], 17.5 µM (inactive); in experiment [17], 14.7 µM (inactive); in experiment [18], 15.9 µM (inactive).
With `N=c1c2ccccc2nc2oc3ccc(Cl)cc3n12`, the GI50 in experiment [1] was 37.8 µM (inactive); in experiment [2], 5.81 µM (inactive); in experiment [3] it was 65.6 µM (inactive); in experiment [4], 3.21 µM (inactive); in experiment [20], 31.9 µM (inactive); in [5], 11.9 µM (inactive). In addition, the GI50 in experiment [6] is 29.4 µM (inactive); in [7], 5.38 µM (inactive); in experiment [8], 4.4 µM (inactive); in [10], 20.3 µM (inactive); in [11] it was 3.94 µM (inactive); in experiment [12], 10.6 µM (inactive). The GI50 in experiment [13] is 9.4 µM (inactive); in experiment [14], 71.3 µM (inactive); in [15], 10.8 µM (inactive); in experiment [16], 19.8 µM (inactive); in experiment [17], 16.4 µM (inactive); in [18], > 100 µM (inactive).
Regarding `COc1cc(OCc2nc3ccccc3n3cccc23)cc(OC)c1OC`, the GI50 in [1] is 2.42 µM (inactive); in experiment [2], 37.2 µM (inactive); in experiment [3] it was 19.4 µM (inactive); in [19], 9.35 µM (inactive); in experiment [4] it was 22.2 µM (inactive); in experiment [5], 29.7 µM (inactive). Further, the GI50 in [6] is 16.8 µM (inactive); in [7], 23.3 µM (inactive); in experiment [8], 1.34 µM (inactive); in [9], > 87.5 µM (inactive); in experiment [10] it was 28.1 µM (inactive); in [11], 24.4 µM (inactive). Besides, the GI50 in experiment [12] was 17.5 µM (inactive); in experiment [13], 20.7 µM (inactive); in experiment [14] it was 16 µM (inactive); in [15] it was 20.6 µM (inactive); in [16] it was > 52 µM (inactive); in experiment [17], 20.3 µM (inactive). For the same compound, the GI50 in experiment [18] was 15.9 µM (inactive).
In the case of `COC(=O)c1ccc(CN2CCc3c([nH]c4ccccc34)C2CO)o1` (stereo not drawn), the GI50 in [1], in [2], in [3], in [19], in experiment [20] and in experiment [5] was > 10 µM (inactive) throughout. Moreover, the GI50 in experiment [6], in experiment [8], in [10], in experiment [11], in experiment [13] and in experiment [14] was > 10 µM (inactive) each time. Also, the GI50 in [15], in experiment [17] and in experiment [18] was > 10 µM (inactive) throughout.
As for `COc1ccc(COCC[C@H](C)OC2OC(CO[Si](C)(C)C(C)(C)C)C(OC(=O)CCCN=[N+]=[N-])C(OC(=O)CCCN=[N+]=[N-])C2OC(=O)CCCN=[N+]=[N-])cc1` (stereo partly drawn), the GI50 in [1] was 9.64 µM (inactive); in experiment [2], 97.5 µM (inactive); in experiment [3], 44.9 µM (inactive); in experiment [19], 10.6 µM (inactive); in experiment [4] it was 25.2 µM (inactive); in experiment [5], 36.9 µM (inactive). Further, the GI50 in experiment [6] is 25.6 µM (inactive); in experiment [7] it was 29.6 µM (inactive); in experiment [9], > 100 µM (inactive); in experiment [10], 22.3 µM (inactive); in experiment [11], 43.7 µM (inactive); in experiment [12], 19.5 µM (inactive). The GI50 was 68.5 µM (inactive) in experiment [13]; > 100 µM (inactive) in experiment [14]; > 100 µM (inactive) in experiment [15]; 89.1 µM (inactive) in experiment [16]; 51.5 µM (inactive) in experiment [17]; 88.1 µM (inactive) in experiment [18].
As for `C[C@@](Br)(C(=O)O)[C@H](Br)C(=O)O`, the GI50 in experiment [1] is > 100 µM (inactive); in experiment [2], > 100 µM (inactive); in experiment [3], > 100 µM (inactive); in experiment [19] it was > 100 µM (inactive); in experiment [4], > 100 µM (inactive); in experiment [5] it was 55.5 µM (inactive). The GI50 in experiment [6], in [7], in experiment [8], in experiment [9], in experiment [10] and in [11] was > 100 µM (inactive) each time. The GI50 in experiment [12], in experiment [13], in [14], in experiment [15], in experiment [16] and in experiment [17] was > 100 µM (inactive) throughout. Moreover, the GI50 in experiment [18] was > 100 µM (inactive).
For `Cc1ccc(Nc2[nH]c(=O)[nH]c(=O)c2C)cc1Cl`, the GI50 in experiment [1] is 92 µM (inactive); in [2] it was > 100 µM (inactive); in experiment [3], > 100 µM (inactive); in [4] it was > 100 µM (inactive); in [5], 67.3 µM (inactive); in experiment [6], > 100 µM (inactive). In addition, the GI50 in experiment [7] was > 100 µM (inactive); in experiment [8], 58.5 µM (inactive); in experiment [9], > 100 µM (inactive); in [10] it was > 100 µM (inactive); in experiment [11], > 100 µM (inactive); in experiment [12] it was > 100 µM (inactive). Further, the GI50 in [13] is > 100 µM (inactive); in [14], > 100 µM (inactive); in experiment [15], > 100 µM (inactive); in experiment [16] it was > 100 µM (inactive); in experiment [17], 78.5 µM (inactive); in experiment [18], > 100 µM (inactive).
In the case of `COC(=O)C1=C(\c2ccccc2)c2ccccc2C(=O)N(C2CCCCC2)/C=C\1`, the GI50 in experiment [1] is 11.5 µM (inactive); in [2], 21.3 µM (inactive); in experiment [3] it was 29.5 µM (inactive); in experiment [19] it was 21.3 µM (inactive); in experiment [4], 14.2 µM (inactive); in experiment [5], 20.9 µM (inactive). The GI50 in experiment [6] was 14.5 µM (inactive); in [7], 21 µM (inactive); in experiment [9], 30.1 µM (inactive); in experiment [10], 21.9 µM (inactive); in experiment [11], 34.6 µM (inactive); in [12] it was 19.4 µM (inactive). Also, the GI50 in experiment [13] is 28.6 µM (inactive); in experiment [14] it was 17.9 µM (inactive); in [15], 25.3 µM (inactive); in experiment [16] it was 72.9 µM (inactive); in experiment [17], 25.8 µM (inactive); in experiment [18], 13.9 µM (inactive).
